± gives the standard deviation.
What was measured:
[1] = chemical recovery from spiked human plasma; higher = better extraction; conditions: pooled human plasma
[2] = chemical recovery by SPE of plasma after PDMS sampling; higher = better extraction; conditions: pooled human plasma, extraction method: HLB SPE of plasma after PES
[3] = extraction method: SPE only (HLB 96-well), PES comparison experiment
[4] = extraction method: PES+SPE (3 d PDMS equilibration then HLB SPE)
[5] = extraction method: SPE only (HLB 96-well)
[6] = extraction method: solvent precipitation (ACN + hexane)
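For chemical recovery by SPE of plasma after PDMS sampling in this document: over 400 spiked chemicals quantified by LC-HRMS or GC-HRMS via internal standard calibration, recovery relative to spike mix added to unspiked plasma extract to correct matrix effects.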

Structure (SMILES)	chemical recovery [1, 3] [%]	chemical recovery by SPE of plasma ([2]; equilibration time (d): 1) [%]	chemical recovery by SPE of plasma ([2]; equilibration time (d): 3) [%]	chemical recovery by SPE of plasma ([2]; equilibration time (d): 6) [%]	chemical recovery [1, 4] [%]	chemical recovery [1, 5] [%]	chemical recovery [1, 6] [%]
CC[C@H]1OC(=O)C[C@@H](O)[C@H](C)[C@@H](O[C@@H]2O[C@H](C)[C@@H](O[C@H]3C[C@@](C)(O)[C@@H](O)[C@H](C)O3)[C@H](N(C)C)[C@H]2O)[C@@H](CC=O)C[C@@H](C)C(=O)/C=C/C(C)=C/[C@@H]1CO[C@@H]1O[C@H](C)[C@@H](O)[C@@H](OC)[C@H]1OC [TylosinCH4O]	33.9 ± 4.8	30.2 ± 3.2	35.1 ± 4.1	33 ± 2.3	–	–	–
CCCCNc1ccc(C(=O)OCCN(C)C)cc1 [Tetracain]	–	0.00668 ± 0.0083	–	–	0.105 ± 0.0078	2.67 ± 1.9	–
CCc1cccc(C)c1N(C(=O)CS(=O)(=O)O)C(C)COC (configuration not stated) [Metolachlor ESA]	46.9 ± 4	38.9 ± 5.3	42.9 ± 5.7	39.7 ± 6.8	0.65 ± 0.11	33.2 ± 2.9	69.1 ± 3.4
CC(=O)Nc1ccc(O)c(C(=O)O)c1 [N-Acetyl mesalazine]	58.9 ± 4.9	56.2 ± 8.4	61.6 ± 4.1	55.1 ± 4.2	–	–	–
CC(=O)Nc1ccc(S(=O)(=O)Nc2cc(C)on2)cc1 [Acetyl-sulfamethoxazole]	51.5 ± 4.3	51.7 ± 7.1	51.4 ± 3.5	49.3 ± 6.2	42.7 ± 3.9	37.2 ± 3.4	72 ± 3.1
O=S(=O)(O)c1nc2ccccc2s1 [2-Benzothiazolesulfonic acid]	46 ± 4.3	31.8 ± 4.8	42.3 ± 0.92	39.9 ± 5.4	–	61.2 ± 20	88.4 ± 4.2
Oc1nc(O)c2cn[nH]c2n1 [Oxypurinol]	–	–	1.02 ± 0.27	–	–	–	17 ± 2.7
CCCCn1cc[n+](C)c1 [1-Butyl-3-methyl-imidazolium]	3.93 ± 4.5	2.28 ± 2	3.98 ± 3.6	4.03 ± 4.2	–	3.53 ± 1.7	–
CC(C)(Oc1ccc(Cl)cc1)C(=O)O [Clofibric acid]	61 ± 5.4	53.1 ± 9.5	58.7 ± 6.2	51.5 ± 4.8	44.8 ± 1.8	44.7 ± 2.7	66.6 ± 7.9
CCc1cccc(C)c1NC(=O)CS(=O)(=O)O	42.9 ± 4.2	37.4 ± 8.2	40.4 ± 2	40.3 ± 9.3	–	–	–
CCCOc1nn(C(=O)NS(=O)(=O)c2ccccc2C(=O)OC)c(=O)n1C [Propoxycarbazone]	43.2 ± 6.2	27.1 ± 5.6	32 ± 2.5	29.4 ± 1.4	39.2 ± 4.4	31.4 ± 2.8	75.6 ± 5.4
CCCCc1nc(Cl)c(CO)n1Cc1ccc(-c2ccccc2-c2nnn[nH]2)cc1 [Losartan]	40.8 ± 7.5	44.8 ± 3.8	50.8 ± 2.6	46.7 ± 1.6	44.5 ± 4.3	41.2 ± 2.9	77.2 ± 3.6
c1ccc2sc(SNC3CCCCC3)nc2c1 [N-Cyclohexyl-2-benzothiazole-sulfenamide]	44.1 ± 3.7	42.3 ± 7.4	43.6 ± 3.3	42.3 ± 4.2	–	–	–
CCCCCOC(=O)Nc1nc(=O)n([C@@H]2O[C@H](C)[C@@H](O)[C@H]2O)cc1F [Capecitabine]	47.5 ± 7.2	44.1 ± 5.1	48.6 ± 5.5	44.2 ± 1.7	–	–	–
CCC(=C(c1ccc(O)cc1)c1ccc(OCCN(C)C)cc1)c1ccccc1 [4-Hydroxytamoxifen]	42.6 ± 12	13.5 ± 3.3	7.29 ± 0.7	3.71 ± 1.9	11.4 ± 2.5	46.8 ± 8.9	62.1 ± 1.3
CC[N+](CC)(CC(=O)Nc1c(C)cccc1C)Cc1ccccc1 [Denatonium]	49.9 ± 3.3	56.4 ± 6.3	57.1 ± 3.3	54.9 ± 6.9	50.8 ± 2.9	38.4 ± 3.9	71.9 ± 3.3
Clc1ccc(Cl)c(-c2cc(Cl)ccc2Cl)c1 [PCB52]	16.2 ± 3.2	1.19 ± 0.83	1.25 ± 0.28	1.09 ± 0.3	48.5 ± 8.4	3.67 ± 0.85	–
COc1cc(OC)nc(NC(=O)NS(=O)(=O)N(C)S(C)(=O)=O)n1 [Amidosulfuron]	49.1 ± 5.6	46.5 ± 7.7	49.1 ± 5.5	45.9 ± 6.6	46.6 ± 16	41 ± 4.5	70.2 ± 3.1
CC(C(=O)O)c1cccc(C(=O)c2ccccc2)c1 (configuration not stated) [Ketoprofen]	53.1 ± 4.2	47.5 ± 5.5	54 ± 2.6	48.2 ± 2.2	56.1 ± 6	46.1 ± 2.4	68.4 ± 3.2
CC[C@H]1OC(=O)[C@H](C)[C@@H](O[C@H]2C[C@@](C)(OC)[C@@H](O)[C@H](C)O2)[C@H](C)[C@@H](O[C@@H]2O[C@H](C)C[C@H](N(C)C)[C@H]2O)[C@](C)(OC)C[C@@H](C)C(=O)[C@H](C)[C@@H](O)[C@]1(C)O [Clarithromycin]	44.1 ± 6.5	22 ± 3.3	24.4 ± 2.8	22.3 ± 2.2	30.2 ± 4.1	45.1 ± 2.3	69.1 ± 2.1
C[C@@H]1C[C@H]2[C@@H]3C[C@H](F)C4=CC(=O)C=C[C@]4(C)[C@@]3(F)[C@@H](O)C[C@]2(C)[C@@]1(O)C(=O)CO [Flumethasone]	47.9 ± 6.4	46.8 ± 5.2	51.4 ± 1.9	44.3 ± 2.9	–	–	–
COc1cc(OC)nc(NC(=O)NS(=O)(=O)c2ncccc2C(=O)N(C)C)n1 [Nicosulfuron]	49.3 ± 3.4	51.6 ± 5.2	56 ± 2.5	50.3 ± 3.3	–	44.7 ± 3.3	64.3 ± 2.2
C1=Cc2cccc3cccc1c23 [Acenaphthylene]	–	–	10.5 ± 4.6	2.28 ± 8	–	3.51 ± 0.93	–
C=Cc1c2ccccc2cc2ccccc12 [9-Vinylanthracene]	–	3.04 ± 5.3	3.05 ± 5.3	2.42 ± 4.2	42.05 ± 0.27	2.31 ± 0.48	–
COc1cc(O)c(C(=O)c2ccccc2)cc1S(=O)(=O)O [Benzophenone-4]	44.4 ± 4.8	41 ± 11	48.7 ± 3.4	43.3 ± 4.4	45.5 ± 3.2	43.3 ± 3.8	72.2 ± 2.3
NC(=O)N=C(N)N [Guanylurea]	1.06 ± 1.4	0.503 ± 1.2	0.581 ± 0.1	0.912 ± 0.18	–	–	–
CCc1ccc(CCOc2ccc(CC3SC(=O)NC3=O)cc2)nc1 (configuration not stated) [Pioglitazone]	42.9 ± 6	45.8 ± 9.5	49.1 ± 3	47 ± 6.1	42.9 ± 3.5	48.6 ± 3.3	–
CCCCCCCCCCCCCC(=O)NCCC[N+](C)(C)CCCS(=O)(=O)[O-] [Amidosulfobetaine-14]	36 ± 9.4	25.7 ± 5.3	26.1 ± 6.5	25.2 ± 4.2	–	–	74.8 ± 5

— the supplement of paper PMC10702517
